Counter-ions that a name gives are not always drawn.

This assay addresses T1, human GnRH receptor (Homo sapiens, UniProt P30968).
T1 construct: expressed in transfected cells; host or cells: CHO (Chinese Hamster Ovary) cells, membrane fraction
T1 sequence (P30968 1-328): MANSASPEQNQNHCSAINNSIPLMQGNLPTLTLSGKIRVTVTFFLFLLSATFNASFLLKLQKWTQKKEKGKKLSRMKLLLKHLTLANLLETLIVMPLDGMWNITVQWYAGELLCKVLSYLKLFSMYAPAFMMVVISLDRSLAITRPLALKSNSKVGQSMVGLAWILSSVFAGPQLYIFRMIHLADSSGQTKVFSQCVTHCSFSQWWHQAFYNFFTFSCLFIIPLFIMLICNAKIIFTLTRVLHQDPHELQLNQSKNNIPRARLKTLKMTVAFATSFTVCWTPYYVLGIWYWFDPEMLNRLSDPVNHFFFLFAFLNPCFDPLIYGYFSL
In words: Inhibition of ^125 I-leuprorelin binding to membrane fraction of CHO cells expressing human GnRH receptors. The conditions noted are these: CHO cell membrane fraction, 25° C., 60 minutes, concentration of PMB=50% by Hill plot, read-out: IC50 value human GnRH receptor (^125 I-leuprorelin binding inhibitory rate).
Consider `CC(C)Oc1cn(Cc2c(F)cccc2F)c2sc(-c3ccc(NC(=O)C(C)C)cc3)c(CN(C)Cc3ccccc3)c2c1=O` [Example 8(4), 4,7-dihydro-2-(4-isobutyrylaminophenyl)-3-(N-benzyl-N-methylaminomethyl)-5-isopropoxy-7-(2,6-difluorobenzyl)-4-oxothieno[2,3-b]pyridine], for which the IC50 was found to be 1 nM.
Next, `CC(C)C(=O)Nc1ccc(-c2sc3c(c2CN(C)Cc2ccccc2)c(=O)c(OS(=O)(=O)C(C)C)cn3Cc2c(F)cccc2F)cc1` [Example 10, 4,7-dihydro-2-(4-isobutyrylaminophenyl)-3-(N-benzyl-N-methylaminomethyl)-5-isopropylsulfonyloxy-7-(2,6-difluorobenzyl)-4-oxothieno[2,3-b]pyridine hydrochloride]: 0.3 nM.
Under `CC(C)C(=O)Nc1ccc(-c2sc3c(c2CN(C)Cc2ccccc2)c(=O)c(OC(=O)C(C)C)cn3Cc2c(F)cccc2F)cc1` [Example 11, 4,7-dihydro-2-(4-isobutyrylaminophenyl)-3-(N-benzyl-N-methylaminomethyl)-5-isobutyryloxy-7-(2,6-difluorobenzyl)-4-oxothieno[2,3-b]pyridine hydrochloride] stands 2 nM; under `CCOC(=O)COc1cn(Cc2c(F)cccc2F)c2sc(-c3ccc(NC(=O)C(C)C)cc3)c(CN(C)Cc3ccccc3)c2c1=O` [Example 12, 4,7-dihydro-2-(4-isobutyrylaminophenyl)-3-(N-benzyl-N-methylaminomethyl)-5-ethoxycarbonylmethoxy-7-(2,6-difluorobenzyl)-4-oxothieno[2,3-b]pyridine], 3 nM.

Usually IC50 stands for the concentration that gives 50% inhibition.

These data come from US5744479A, “Thienopyridine compounds which have useful pharmaceutical activity” (Takeda Chemical Industries, Ltd., priority 1995, dated 1998).
